Drawing on patent EP4741386A1 (Jiangsu Yahong Meditech Co., Ltd., priority 2023, dated 2025), this text covers IC50 for 25 compounds.

The target in assay [1] is T1, Recombinant human His6-USP1/His6-UAF1 complex protein (Homo sapiens, UniProt O94782).
T1 construct: His6; purchased R&D E-568-050
In words: In vitro inhibitory activity against USP1 (Ubiquitin Rhodamine 110 fluorescence detection, 384-well plate). As to conditions: Ub-Rho substrate, 1 hour pre-incubation, read after 30 minutes. The assay is classed as biochemical. An outline of the steps:
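Fluorescence assay measuring inhibition of recombinant human His6-USP1/His6-UAF1 complex with Ubiquitin-Rhodamine 110 substrate. Compounds held as 50 mM stocks in 100% DMSO and dispensed by acoustic transfer into modified Tris assay buffer.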

In another assay the test system is MDA-MB-436. Briefly: CTG experiment for cell viability (CellTiter-Glo, 96-well plate, 7 days). To be noted: Homo sapiens, MDA-MB-436, 168 h, MDA-MB-436 cells, 7 days culture with compound. The class given is cell-based. Put shortly: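 MDA-MB-436 cells in DMEM were plated in 96-well format, treated with compounds, and cultured 7 days at 37°C. After removing the medium, cells were given PBS plus CellTiter-Glo reagent, incubated 10 min at room temperature, and luminescence was read. Curves were fitted as for the enzyme assay.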
In general terms: In ATP-based viability assays light output follows the ATP content of the culture.

T1 sequence (O94782 whole entry): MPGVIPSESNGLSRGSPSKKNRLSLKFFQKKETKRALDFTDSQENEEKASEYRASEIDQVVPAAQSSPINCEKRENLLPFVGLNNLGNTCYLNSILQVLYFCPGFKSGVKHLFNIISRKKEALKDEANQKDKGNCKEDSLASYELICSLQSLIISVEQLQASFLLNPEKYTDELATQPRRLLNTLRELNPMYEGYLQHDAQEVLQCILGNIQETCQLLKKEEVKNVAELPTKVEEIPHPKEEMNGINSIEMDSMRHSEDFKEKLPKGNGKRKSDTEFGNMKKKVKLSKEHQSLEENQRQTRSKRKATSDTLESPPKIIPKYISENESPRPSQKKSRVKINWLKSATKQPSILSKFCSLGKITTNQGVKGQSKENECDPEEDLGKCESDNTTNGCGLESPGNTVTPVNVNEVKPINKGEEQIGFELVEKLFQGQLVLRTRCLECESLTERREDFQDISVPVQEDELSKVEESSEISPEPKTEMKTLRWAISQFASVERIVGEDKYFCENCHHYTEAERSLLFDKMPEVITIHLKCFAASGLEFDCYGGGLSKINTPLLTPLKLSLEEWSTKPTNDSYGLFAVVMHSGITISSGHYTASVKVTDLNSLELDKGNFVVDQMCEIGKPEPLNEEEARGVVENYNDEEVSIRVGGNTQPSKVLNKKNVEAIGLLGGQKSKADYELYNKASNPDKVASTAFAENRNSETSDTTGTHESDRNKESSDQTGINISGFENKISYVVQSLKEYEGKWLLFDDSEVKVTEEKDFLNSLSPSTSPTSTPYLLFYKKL
T1 sequence (Q8TAF3 whole entry partner): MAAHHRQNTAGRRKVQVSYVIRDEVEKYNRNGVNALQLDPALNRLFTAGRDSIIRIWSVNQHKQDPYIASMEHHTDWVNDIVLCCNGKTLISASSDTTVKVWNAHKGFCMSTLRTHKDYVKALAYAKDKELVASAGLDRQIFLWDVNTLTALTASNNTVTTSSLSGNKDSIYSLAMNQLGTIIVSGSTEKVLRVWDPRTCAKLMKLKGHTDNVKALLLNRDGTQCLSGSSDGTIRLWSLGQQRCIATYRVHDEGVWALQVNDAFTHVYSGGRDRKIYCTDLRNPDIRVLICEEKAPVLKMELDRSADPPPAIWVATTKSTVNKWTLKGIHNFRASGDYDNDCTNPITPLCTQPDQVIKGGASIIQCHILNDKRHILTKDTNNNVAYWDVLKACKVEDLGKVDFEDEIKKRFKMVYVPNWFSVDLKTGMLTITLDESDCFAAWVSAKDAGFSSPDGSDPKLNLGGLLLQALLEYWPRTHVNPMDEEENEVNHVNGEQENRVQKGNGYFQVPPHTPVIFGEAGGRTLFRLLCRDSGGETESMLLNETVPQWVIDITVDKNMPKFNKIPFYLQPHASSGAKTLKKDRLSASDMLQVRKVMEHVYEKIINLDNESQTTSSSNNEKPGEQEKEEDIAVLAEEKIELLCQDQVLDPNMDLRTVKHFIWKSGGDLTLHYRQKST

With `COc1cc(-n2nc(C(F)(F)F)cc2C)ccc1CNc1nc(-c2c(OC)ncnc2C2CC2)ncc1OC` [Example 102, 4'-Cyclopropyl-5,6'-dimethoxy-N-(2-methoxy-4-(5-methyl-3-(trifluoromethyl)-1H-pyrazol-1-yl)benzyl)-[2,5'-bipyrimidin]-4-amine], the IC50 (as a rule, the midpoint of a concentration-inhibition curve) in assay [1] came out at 4.4 nM; in the assay with MDA-MB-436 it was 15.8 nM.

Consider `CC(C)Oc1cnc(-c2ccccc2C(C)C)nc1N(C)Cc1ccc(-c2nc(C(F)(F)F)cn2C)cc1` [Example 71, 5-Isopropoxy-2-(2-isopropylphenyl)-N-methyl-N-(4-(1-methyl-4-(trifluoromethyl)-1H-imidazol-2-yl)benzyl)pyrimidin-4-amine], for which the IC50 came to 9.9 nM in assay [1] and 274 nM with MDA-MB-436.

As for `COc1cnc(-c2c(OC)ncnc2C2CC2)nc1N(O)Cc1ccc(-c2nc(C(F)(F)F)cn2C)cc1` [Example 204, N-(4'-cyclopropyl-5,6'-dimethoxy-[2,5'-bipyrimidin]-4-yl)-N-(4-(1-methyl-4-(trifluoromethyl)-1H-imidazol-2-yl)benzyl)hydroxylamine], the 50% inhibitory concentration (IC50) in assay [1] was determined as 25 nM; in the assay on MDA-MB-436, 15.7 nM.

`COc1cnc(-c2cncnc2C2CC2)nc1NCc1ccc(-c2nc(C(F)(F)F)cn2C)cc1` [Example 194, 4'-Cyclopropyl-5-methoxy-N-(4-(1-methyl-4-(trifluoromethyl)-1H-imidazol-2-yl)benzyl)-[2,5'-bipyrimidin]-4-amine]: the IC50 in assay [1] stood at 51 nM; in the assay on MDA-MB-436 it was 58.4 nM.

Take `COc1cnc(-c2c(OC)ncnc2C(F)(F)F)nc1NCC12CCC(c3nc(C(F)(F)F)cn3C(C)C)(CC1)OC2` [Example S15, N-((1-(1-Isopropyl-4-(trifluoromethyl)-1H-imidazol-2-yl)-2-oxabicyclo[2.2.2]oct-4-yl)methyl)-4',5-dimethoxy-6'-(trifluoromethyl)-[2,5'-bipyrimidin]-4-amine]: the IC50 was 91 nM in assay [1] and 239 nM with MDA-MB-436.

`COc1cnc(-c2c(OC)ncnc2C2CC2)nc1NCc1ccc(-c2nc(C)cn2C(F)F)cc1` [Example 105, 4'-Cyclopropyl-N-(4-(1-(difluoromethyl)-4-methyl-1H-imidazol-2-yl)benzyl)-5,6'-dimethoxy-[2,5'-bipyrimidin]-4-amine]: the IC50 came to 60 nM in assay [1] and 124 nM in the assay with MDA-MB-436.

Turning to `COc1cnc(-c2c(OC)ncnc2C2CC2)nc1N(C)CC12C3C4C1C1C2C3C41c1nc(C(F)(F)F)cn1C` (centres unmarked) [Example 207, 2-(4-cyclopropyl-6-methoxy-pyrimidin-5-yl)-5-methoxy-N-methyl-N-[[4-[1-methyl-4-(trifluoromethyl)imidazol-2-yl]cuban-1-yl]methyl]pyrimidin-4-amine], the IC50 amounted to 3.5 nM in assay [1] and 5.8 nM with MDA-MB-436.

With `CC(C)c1ccccc1-c1nc(NCc2ccc(-c3nc(C(F)(F)F)cn3C)cc2)c2ncccc2n1` [Example 40, 2-(2-Isopropylphenyl)-N-(4-(1-methyl-4-(trifluoromethyl)-1H-imidazol-2-yl)benzyl)pyrido[3,2-d]pyrimidin-4-amine], the IC50 in assay [1] stood at 2.3 nM; in the assay with MDA-MB-436, 21.4 nM.

Take `[2H]C([2H])([2H])N(C[C@H]1CC[C@H](c2nc(C(F)(F)F)cn2C2CC2)CC1)c1nc(-c2c(OC)ncnc2C2CC2)ncc1OC` [Example S23, 4'-Cyclopropyl-N-(((1R,4R)-4-(1-cyclopropyl-4-(trifluoromethyl)-1H-imidazol-2-yl)cyclohexyl)methyl)-5,6'-dimethoxy-N-(methyl-D3)-[2,5'-bipyrimidin]-4-amine]: the IC50 was 4.8 nM in assay [1] and 0.1 nM in the assay on MDA-MB-436.

As to `COc1ncnc(C2CC2)c1-c1ncc(OC(C)C)c(N(C)CC2CCN(c3nc(C(F)(F)F)cn3C)CC2)n1` [Example 108, 4'-Cyclopropyl-5-isopropoxy-6'-methoxy-N-methyl-N-((1-(1-methyl-4-(trifluoromethyl)-1H-imidazol-2-yl)piperidin-4-yl)methyl)-[2,5'-bipyrimidin]-4-amine], the IC50 in assay [1] turned out to be 19.7 nM; in the assay with MDA-MB-436 it was 353 nM.

For the compound `COCc1cnc(-c2c(OC)ncnc2C2CC2)nc1N(C)Cc1ccc(-c2nc(C(F)(F)F)cn2C(C)C)cc1` [Example 138, 4'-Cyclopropyl-N-(4-(1-isopropyl-4-(trifluoromethyl)-1H-imidazol-2-yl)benzyl)-6'-methoxy-5-(methoxymethyl)-N-methyl-[2,5'-bipyrimidin]-4-amine], the results for the IC50 (in assay [1]; in the assay with MDA-MB-436) were 9 nM and 12.4 nM, respectively.

With `CC(C)c1ccccc1-c1nc(NCc2ccc(-c3nc(C(F)(F)F)cn3C)cc2)c2occc2n1` [Example 33, 2-(2-Isopropylphenyl)-N-(4-(1-methyl-4-(trifluoromethyl)-1H-imidazol-2-yl)benzyl)furo[3,2-d]pyrimidin-4-amine], the IC50 in assay [1] stood at 1.2 nM; in the assay with MDA-MB-436, 1.8 nM.

For `COc1ncnc(C2CC2)c1-c1ncc(OC(C)C)c(NCC2CCN(c3nc(C(F)(F)F)cn3C)CC2)n1` [Example 110, 4'-Cyclopropyl-5-isopropoxy-6'-methoxy-N-((1-(1-methyl-4-(trifluoromethyl)-1H-imidazol-2-yl)piperidin-4-yl)methyl)-[2,5'-bipyrimidin]-4-amine], the IC50 in assay [1] came out at 28.6 nM; in the assay on MDA-MB-436 it was 354 nM.

In the case of `COc1cnc(-c2c(OC)ncnc2C2CC2)nc1N(C#N)CC12CCC(c3nc(C(F)(F)F)cn3C)(CC1)CC2` [Example S43], the IC50 in assay [1] stood at 6.9 nM; with MDA-MB-436, 12.1 nM.

Consider `C#Cc1cnc(-c2c(C)cnn2C(C)C)nc1NCc1ccc(-c2nc(C(F)(F)F)cn2C)cc1` [Example 203, 5-Ethynyl-2-(1-isopropyl-4-methyl-1H-pyrazol-5-yl)-N-(4-(1-methyl-4-(trifluoromethyl)-1H-imidazol-2-vl)benzyl)pyrimidin-4-amine], for which the results for the half-inhibitory concentration (IC50) (in assay [1]; with MDA-MB-436) were 1.4 nM and 3.3 nM, respectively.

Take `COc1cnc(-c2c(OC)ncnc2C2CC2)nc1NCc1ccc(-c2nc(C(F)(F)F)cn2C)cc1` [Example 96, 4'-Cyclopropyl-5,6'-dimethoxy-N-(4-(1-methyl-4-(trifluoromethyl)-1H-imidazol-2-yl)benzyl)-[2,5'-bipyrimidin]-4-amine]: the figures for the IC50 (in assay [1]; with MDA-MB-436) were 4.8 nM and 12 nM, respectively.

For `COc1ncnc(C2CC2)c1-c1nc(NCc2ccc(-c3nc(C(F)(F)F)cn3C)s2)c2occc2n1` [Example 113, 2-(4-Cyclopropyl-6-methoxypyrimidin-5-yl)-N-((5-(1-methyl-4-(trifluoromethyl)-1H-imidazol-2-yl)thiophen-2-yl)methyl)furo[3,2-d]pyrimidin-4-amine], the IC50 stood at 23 nM in assay [1] and 87.2 nM with MDA-MB-436.

Take `COc1cnc(-c2cccnc2C2CC2)nc1NCC1CCN(c2nc(C(F)(F)F)cn2C)CC1` [Example 152, 2-(2-Cyclopropylpyridin-3-yl)-5-methoxy-N-((1-(1-methyl-4-(trifluoromethyl)-1H-imidazol-2-yl)piperidin-4-yl)methyl)pyrimidin-4-amine]: the IC50 was 7.5 nM in assay [1] and 64.4 nM in the assay with MDA-MB-436.

For the compound `COc1cnc(-c2ccccc2C(C)C)nc1N(C)CC1CCN(c2nc(C(F)(F)F)cn2C)CC1` [Example 62, 2-(2-Isopropylphenyl)-5-methoxy-N-methyl-N-((1-(1-methyl-4-(trifluoromethyl)-1H-imidazol-2-yl)piperidin-4-yl)methyl)pyrimidin-4-amine], the IC50 in assay [1] is 2.1 nM; in the assay with MDA-MB-436 it was 2.2 nM.

Turning to `Cn1cc(C(F)(F)F)nc1-c1ccc(CNc2nc(-c3ccccc3C3CC3)nc3ccoc23)cc1` [Example 173, 2-(2-Cyclopropylphenyl)-N-(4-(1-methyl-4-(trifluoromethyl)-1H-imidazol-2-yl)benzyl)furo[3,2-d]pyrimidin-4-amine], the IC50 in assay [1] was 1 nM; with MDA-MB-436 it was 23.6 nM.

With `COc1cnc(-c2c(OC)ncnc2C2CC2)nc1NCC1CCN(c2nc(C(F)(F)F)cn2C)CC1` [Example 95, 4'-Cyclopropyl-5,6'-dimethoxy-N-((1-(1-methyl-4-(trifluoromethyl)-1H-imidazol-2-yl)piperidin-4-yl)methyl)-[2,5'-bipyrimidin]-4-amine], the values for the IC50 (in assay [1]; with MDA-MB-436) were 8.4 nM and 75.1 nM, respectively.

For the compound `COc1cnc(-c2c(OC)ncnc2C2CC2)nc1NCC12CCC(c3nc(C(F)(F)F)cn3C)(CC1)CC2` [Example 104, 4'-Cyclopropyl-5,6'-dimethoxy-N-((4-(1-methyl-4-(trifluoromethyl)-1H-imidazol-2-yl)bicyclo[2.2.2]octan-1-yl)methyl)-[2,5'-bipyrimidin]-4-amine], the IC50 in assay [1] is 8.8 nM; with MDA-MB-436 it was 13.7 nM.

For `COc1ncnc(C2CC2)c1-c1ncc(OC(C)C)c(NCc2ccc(-c3nc(C(F)(F)F)cn3C)cc2)n1` [Example 111, 4'-Cyclopropyl-5-isopropoxy-6'-methoxy-N-(4-(1-methyl-4-(trifluoromethyl)-1H-imidazol-2-yl)benzyl)-[2,5'-bipyrimidin]-4-amine], the IC50 in assay [1] amounted to 10.4 nM; in the assay with MDA-MB-436, 88.1 nM.

On to `COc1cc(CNc2nc(-c3ccccc3C3CC3)ncc2OC)ccc1-c1nc(C(F)(F)F)cn1C` [Example 172, 2-(2-Cyclopropylphenyl)-5-methoxy-N-(3-methoxy-4-(1-methyl-4-(trifluoromethyl)-1H-imidazol-2-yl)benzyl)pyrimidin-4-amine], for which the IC50 amounted to 12 nM in assay [1] and 954 nM in the assay on MDA-MB-436.

For `COc1ncnc(C2CC2)c1-c1ncc2c(n1)N(CC1CCN(c3nc(C(F)(F)F)cn3C)CC1)CCO2` [Example 20, 2-(4-Cyclopropyl-6-methoxypyrimidin-5-yl)-8-((1-(1-methyl-4-(trifluoromethyl)-1H-imidazol-2-yl)piperidin-4-yl)methyl)-7,8-dihydro-6H-pyrimido[5,4-b][1,4] oxazine], the results for the IC50 (in assay [1]; with MDA-MB-436) were 91.5 nM and 533 nM, respectively.
